Patent publication US20250250241A1, “COMPOUND, PREPARATION AND USE THEREOF IN RUBBER BLENDS AND VEHICLE TIRES, AS AN ANTI-AGING AGENT, ANTIOXIDANT, ANTIOXIDANT AND/OR COLORING AGENT” (Continental Reifen Deutschland GmbH, priority 2022, published 2025)

Assay: Measurement of oxidation induction time (OIT) by DSC
Type: physicochemical
Settings: with liquid polyisoprene LIR-50, DSC; for Time until onset of oxidation (oxidation induction time) at 150° C.: isothermal 150° C., experiments terminated after 900 minutes; for Time until onset of oxidation (oxidation induction time) at 150° C. / Time until onset of oxidation (oxidation induction time) at 165° C.: O2 atmosphere; for Time until onset of oxidation (oxidation induction time) at 165° C.: isothermal 165° C.; for Time until onset of oxidation (oxidation induction time) at 180° C.: isothermal 180° C., O2 atmosphere 50 ml/min
Experimental: Measurement of Oxidation Induction Time (OIT)
The compound of formula III) was investigated under laboratory conditions for its potential protective effect as an aging stabilizer by measurement of the oxidation induction time.
To this end the compounds of formula III) and 6PPD, in each case together with a polymer (liquid synthetic polyisoprene (IR), LIR-50, Kuraray, weight average molecular weight distribution Mw=54 000 g/mol, glass transition temperature Tg=−63° C.), were heated at constant temperature at three different temperatures (180° C.; 165° C.; 150° C.) until onset of oxidation.
Heating to 180° C. was carried out as follows: • Starting temperature 35° C., heating to 170° C. at a heating rate of 20 K/min (kelvin per minute), heating to 180° C. at a heating rate of 1 K/min; purge gas: nitrogen (N2), volume flow 50 ml/min).
The specimen was kept under isothermal conditions at 180° C. under an N2 atmosphere for 5 minutes and the atmosphere was then switched to an O2 atmosphere (volume flow 50 ml/min).
The heating to 165° C. was carried out analogously by first heating to 155° C. at a heating rate of 20 K/min (kelvin per minute) and then heating to 165° C. at a heating rate of 1 K/min.
The heating to 150° C. was carried out analogously by first heating to 140° C. at a heating rate of 20 K/min (kelvin per minute) and then heating to 150° C. at a heating rate of 1 K/min.
Oxidation was determined over one peak using DSC (differential scanning calorimetry).
The time in minutes until oxidation was measured in each case.

Compound	Time until onset of oxidation (oxidation induction time) at 150° C. [min]	Time until onset of oxidation (oxidation induction time) at 165° C. [min]	Time until onset of oxidation (oxidation induction time) at 180° C. [min]
CC(C)CC(C)Nc1ccc(Nc2ccccc2)cc1 (stereo not drawn) [Formula 6PPD, N-(1,3-dimethylbutyl)-N′-phenyl-p-phenylenediamine]	>900	356 ± 10	116 ± 10
CC(C)CC(C)Nc1ccc2c(c1)C(=O)Nc1ccccc1N2 (stereo not drawn) [Formula III), 2-(1,3-dimethylbutylamino)-5,10-dihydro-dibenzo[b,e][1,4]diazepin-11-one]	>900	459 ± 10	169 ± 10
